Tested on: windgrass
Assay: Test C pre-/postemergence test
Format: in vivo, Apera spica-venti
Conditions: Postemergence; for Plant response rating, Windgrass: scale 0 to 100, 0 no effect, 100 complete control
Excerpt: Seeds of plant species selected from blackgrass (Alopecurus myosuroides), downy brome (Bromus tectorum), green foxtail (Setaria viridis), Italian ryegrass (Lolium multiflorum), wheat (Triticum aestivum), wild oat (Avena fatua), catchweed bedstraw (Galium aparine), Russian thistle (Salsola kali), […] (Cynodon dactylon), Surinam grass (Brachiaria decumbens), cocklebur (Xanthium strumarium), corn (Zea mays), crabgrass (Digitaria sanguinalis), woolly cupgrass (Eriochloa villosa), giant foxtail (Setaria faberii), Goosegrass (Eleusin indica), johnsongrass (Sorghum halepense), kochia (Kochia scoparia), lambsquarters (Chenopodium album), morningglory (Ipomoea coccinea), eastern black nightshade (Solanum ptycanthum), yellow nutsedge (Cyperus esculentus), pigweed (Amaranthus retroflexus), common ragweed (Ambrosia elation), soybean (Glycine max), common (oilseed) sunflower (Helianthus annuus), and velvetleaf (Abutilon theophrasti) were planted and treated preemergence with test chemicals formulated in a non-phytotoxic solvent mixture which included a surfactant. At the same time, plants selected from these crop and weed species and also winter barley (Hordeum vulgare), canarygrass (Phalaris minor), and chickweed (Stellaria media) were treated with postemergence applications of some of the test chemicals formulated in the same manner. Plants ranged in height from 2 to 18 cm (1- to 4-leaf stage) for postemergence treatments. […] At time of treatment, test pots were flooded to 3 cm above the soil surface, treated by application of test compounds directly to the paddy water, and then maintained at that water depth for the duration of the test. […] A dash (-) response means no test result.

For `CCn1nc(C(F)(F)F)c(C[S+]([O-])c2cccc[n+]2[O-])c1OCC(F)(F)F` (racemic) [Compound 65], the “Plant response rating (0 to 100), Windgrass” value (31 g ai/ha) was 50, the “Plant response rating (0 to 100), Windgrass” value (62 g ai/ha) was 90 and the “Plant response rating, Windgrass” value (125 g ai/ha) was 100. For the same compound, the “Plant response rating, Windgrass” value (250 g ai/ha) was 100.
For `CCn1nc(C(F)(F)F)c(C(C)S(=O)(=O)c2cccc[n+]2[O-])c1OCC(F)(F)F` (stereo not drawn) [Compound 69], the “Plant response rating (0 to 100), Windgrass” value (31 g ai/ha) was 40, the “Plant response rating (0 to 100), Windgrass” value (62 g ai/ha) was 95 and the “Plant response rating, Windgrass” value (125 g ai/ha) was 95. For the same compound, the “Plant response rating, Windgrass” value (250 g ai/ha) was 100.
`Cn1nc(C(F)(F)F)c(C[S+]([O-])c2cccc[n+]2[O-])c1OCC(F)(F)C(F)(F)F` (stereo not drawn) [Compound 78] was tested, and the “Plant response rating (0 to 100), Windgrass” value (31 g ai/ha) was 0, the “Plant response rating (0 to 100), Windgrass” value (62 g ai/ha) was 0 and the “Plant response rating, Windgrass” value (125 g ai/ha) was 95. The “Plant response rating, Windgrass” value (250 g ai/ha) was 100.

From patent US20100298141A1, “SUBSTITUTED PYRIDINE N-OXIDE HERBICIDES” (E. I. DU PONT DE NEMOURS AND COMPANY, priority 2007, published 2010)
